Assays:
[1] = biological target: T1, α-Glucosidase from Saccharomyces cerevisiae (Saccharomyces cerevisiae, UniProt P53341); test: Assay of α-glucosidase activity (cell-free, QuantiChrom kit); format: biochemical; details: for IC50: cell-free system; for order of α-glucosidase inhibitory rate: 10 μM, n=3, Supplementary Fig. S4; for enhancement of α-glucosidase inhibitory ability by O-methylation (IC50 ratio non-methylated/methylated): IC50 of parent catechin / IC50 of its 3”-O-methylated form
T1 construct: purchased Sigma-Aldrich
Description: α-Glucosidase from Saccharomyces cerevisiae (Sigma-Aldrich) was dissolved in phosphate buffered saline (PBS) at a concentration of 0.01 mg/mL. Tea extracts were diluted 1:10 with distilled water. Tea extracts or various concentrations of flavonoids in DMSO were mixed 1:1 with the α-glucosidase solution. The α-glucosidase activity of the mixture was measured by the QuantiChrom™ α-Glucosidase Assay Kit (Bio Assay Systems, Hayward, CA, USA) according to the manufacturer’s instructions.

[2] = test system: postprandial blood glucose level; test: Starch tolerance test in mice (postprandial blood glucose); format: in vivo, mice (male ICR); details: compound 500 mg/kg b.w. with soluble starch 2,000 mg/kg b.w., Supplementary Fig. S5
Description: Nine-week-old male ICR mice were purchased from Kyudo Company (Saga, Japan). All mice were housed and maintained in a temperature and humidity controlled room with a 12-h light-dark cycle (light from 8 am to 8 pm). All animal studies were performed in accordance with the law (protocol no. 105) and notification (protocol no. 6) of the Japanese government for the welfare of experimental animals. The study protocol was approved by the Animal Care and Use Committee, Kyushu University (Kyushu University, Scientific Research Promotion Division). Mice were randomly divided into 3 groups (n = 8) with equivalent mean body weight and starved overnight. Mice were orally administered with soluble starch (2,000 mg/kg b.w.) (Wako, Osaka, Japan) alone, or in combination with a test sample. All solutions were made in distilled water. Blood was sampled from the tail vein at before (t = 0), 30, 60, 90, 120 and 150 min after administration. The blood glucose level was measured with the Medisafe Mini GR-102 (Terumo Co., Tokyo, Japan) and the areas under the curves (AUC) were calculated.

T1 sequence (P53341 whole entry): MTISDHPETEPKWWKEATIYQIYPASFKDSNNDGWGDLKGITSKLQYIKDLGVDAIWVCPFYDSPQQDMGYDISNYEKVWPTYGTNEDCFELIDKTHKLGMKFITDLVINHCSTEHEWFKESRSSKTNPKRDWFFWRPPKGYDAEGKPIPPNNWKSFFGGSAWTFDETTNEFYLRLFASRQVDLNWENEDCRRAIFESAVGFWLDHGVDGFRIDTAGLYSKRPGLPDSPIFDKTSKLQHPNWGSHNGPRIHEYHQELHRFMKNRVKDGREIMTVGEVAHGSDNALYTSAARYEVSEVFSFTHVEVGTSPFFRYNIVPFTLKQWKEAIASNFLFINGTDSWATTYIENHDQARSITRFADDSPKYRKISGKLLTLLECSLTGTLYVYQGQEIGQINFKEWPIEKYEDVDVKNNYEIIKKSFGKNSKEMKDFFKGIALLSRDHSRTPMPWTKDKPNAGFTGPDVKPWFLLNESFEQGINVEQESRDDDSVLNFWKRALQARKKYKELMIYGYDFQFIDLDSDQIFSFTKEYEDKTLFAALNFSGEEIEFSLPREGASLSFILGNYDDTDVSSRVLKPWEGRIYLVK

Row | Compound | IC50 [1] [µM] | order of α-glucosidase inhibitory rate [1] | elevation of postprandial blood glucose level in oral starch tolerance test [2] | effect on the activity of α-glucosidase ([1]; Supplementary Fig. S2) | enhancement of α-glucosidase inhibitory ability by O-methylation (IC50 ratio non-methylated/methylated) [1] [fold]
1 | Oc1cc(O)c2cc(O)c(-c3cc(O)c(O)c(O)c3)[o+]c2c1 [Del, delphinidin] | 31.6 |  |  |  | 
2 | OC[C@H]1O[C@@H](Oc2cc3c(O)cc(O)cc3[o+]c2-c2cc(O)c(O)c(O)c2)[C@H](O)[C@@H](O)[C@@H]1O [Del-glu, delphinidin-3-O-glucoside] | > 100 |  |  |  | 
3 | COc1cc(C(=O)O[C@@H]2Cc3c(O)cc(O)cc3O[C@@H]2c2ccc(O)c(O)c2)cc(O)c1O [ECG3”Me, epicatechin-3-O-(3-O-methyl) gallate] | 14.7 | EGCG3”Me > EGCG > ECG3”Me > ECG |  |  | 
4 | O=c1c(O)c(-c2cc(O)c(O)c(O)c2)oc2cc(O)cc(O)c12 [Myr, myricetin] | 4.4 |  | suppressed the elevation of postprandial blood glucose level |  | 
5 | O=c1c(OC2O[C@H](CO)[C@@H](O)[C@H](O)[C@H]2O)c(-c2cc(O)c(O)c(O)c2)oc2cc(O)cc(O)c12 (some centres unmarked) [Myr-glu, myricetin-3-O-glucoside] | > 100 |  |  |  | 
6 | CCNC(=O)CC[C@H](N)C(=O)O [theanine, L-theanine] |  |  |  | elevated the activity of α-glucosidase | 
7 | epicatechin-3-O-gallate [ECG] | 61.1 | EGCG3”Me > EGCG > ECG3”Me > ECG |  |  | 4.2
8 | epigallocatechin-3-O-(3-O-methyl) gallate [EGCG3”Me] | 8.1 | EGCG3”Me > EGCG > ECG3”Me > ECG |  |  | 
9 | epigallocatechin-3-O-gallate [EGCG] | 13.3 | EGCG3”Me > EGCG > ECG3”Me > ECG | suppressed the elevation of postprandial blood glucose level |  | 1.6
